Measurements: US20210393565A1, “PREPARATION FOR USE TO INCREASE THE FORMATION OF ONE OR MORE SPECIALIZED PRO-RESOLVING LIPID MEDIATORS (SPM)” (Evonik Operations GmbH, priority 2018, published 2021)

What was measured:
Type in all cases: cell-based
[1] = test system: 47 additional Bacillus megaterium strains; test: Screening of 47 additional strains for SPM production from AvailOm dispersion formulation
Source text: (§1) Bacterial supernatant samples were subjected to lipid extraction using RP-phase solid phase extraction and subsequently analyzed by ultra performance liquid chromatography ESI tandem mass spectrometry (UPLC-MS/MS) according to a published procedure. Under these conditions approximately 40 different LM, including 5-hydroxy-eicosapentaenoic acid 5-HEPE, 8-HEPE, 11-HEPE, 12-HEPE, 15-HEPE, 18-HEPE, 5-hydroxy-eicosatetraenoic acid (5-HETE), 8-HETE, 11-HETE, 12-HETE, 15-HETE, 4-hydroxy-DHA (4-HDHA), 7-HDHA, 13-HDHA, 14-HDHA, 17-HDHA, lipoxin A4 (LXA4), LXB4, resolvin E1 (RvE1), RvE3, resolvin D1-5 (RvD1-5), AT-RvD1, RvD2, protectin D1 (PD1), AT-PD1, maresin 1(MaR1), MaR2, plus 4 fatty acid substrates can be detected with a lower limit of detection of 1 pg.
47 additional Bacillus megaterium strains sourced from various habitats were screened for their SPM production capacity to determine if this is a general phenomenon of the species Bacillus megaterium and to detect strain-specific differences in types and quantities of SPM being produced. Cells were cultured as detailed in example 4, with dispersion formulation of AvailOm® serving as omega-3 fatty acid source. Cell-free preparations of AvailOm® were treated and analyzed in parallel and served as controls for non-enzymatic, spontaneous formation of oxygenation products. […]

[2] = test system: Bacillus megaterium DSM 32963 cells; test: Lipidometabolomics (UPLC-MS/MS) of culture supernatants with AvailOm, dissolved or as dispersion; conditions: − bile acids, AvailOm dispersion; net after subtraction of cell-free control
Source text: as §1
To investigate if Bacillus megaterium is capable of producing other PUFA oxygenation products in addition to 18-HEPE, a lipidometabolomics screening of supernatants from Bacillus megaterium strain 32963 cultured as in example 4 with AvailOm® was performed, either dissolved or in a dispersion formulation, with or without bile acids. Cell-free preparations of AvailOm® formulations were treated and analyzed in parallel and served as controls for non-enzymatic, spontaneous formation of oxygenation products. Values given in table 6 display net concentrations of products formed, i.e. after subtraction of control values. […] Concentrations of several SPM exceed by far the concentrations of SPM found in human plasma samples, which are typically in a range of ˜20-100 pg/ml. For comparison, human breast milk contains ˜6.000 pg/ml RvE1 and ˜10.000 pg/ml RvD1 [42].

[3] = test system: Bacillus megaterium DSM 33296 cells; test: Lipidometabolomics of culture supernatants with AvailOm dispersion formulation; conditions: Bacillus megaterium DSM 33296, AvailOm dispersion formulation; net concentration
Source text: as §1
(§2) 47 additional Bacillus megaterium strains sourced from various habitats were screened for their SPM production capacity to determine if this is a general phenomenon of the species Bacillus megaterium and to detect strain-specific differences in types and quantities of SPM being produced. Cells were cultured as detailed in example 4, with dispersion formulation of AvailOm® serving as omega-3 fatty acid source. Cell-free preparations of AvailOm® were treated and analyzed in parallel and served as controls for non-enzymatic, spontaneous formation of oxygenation products. It was observed that all tested strains produced measurable (>1 pg/ml) amounts of various SPM and precursors thereof, that these amounts were hugely different between the strains (up to 2.000 fold), and that concentrations of RvE3 were particularly high (up to 1.3 μg/ml) in most of the strains.
(§3) Values given in table 7 display net concentrations of PUFA oxygenation products formed by two of the top performing strains, Bacillus megaterium DSM 33296 and Bacillus megaterium DSM 33299.

[4] = test system: Bacillus megaterium DSM 33299 cells; test: as above; conditions: Bacillus megaterium DSM 33299, AvailOm dispersion formulation; net concentration
Source text: as §1, §2, §3

Q: With `CC[C@H](O)C(O)/C=C/C=C/C=C\C/C=C\C/C=C\CCCC(=O)O` (stereo partly shown) [RvE3, resolvin E3] as the compound, how does the “concentration produced, highest among the strains” value [1] read?
A: The value was “up to 1.3 μg/ml”.

Q: What about the “Extracellular concentration of PUFA oxygenation product” value (shortened to “Extracellular concentration”) [2] of the same compound?
A: Its value is 33092 pg/mL.

Q: What about the “Extracellular concentration” value [3] of the same compound?
A: Its value is 1322555 pg/mL.

Q: What about the “Extracellular concentration” value [4] of the same compound?
A: The value was 880739 pg/mL.
